Assay results as given in US20250073242A1, “SLC26A3 INHIBITORS AND USE THEREOF” (THE REGENTS OF THE UNIVERSITY OF CALIFORNIA, priority 2021, published 2025).
pIC50: −log10 of the molar value. Values belong to the compound of their own block, whether it stands above or below them.

Tests used:
DRA = molecular target: T1, DRA (Mus musculus, UniProt Q9WVC8); test: Extracellular action: reversal of DRA inhibition after washout; type: cell-based; conditions: cells incubated 10 min at 5 times IC50; measured at 20-30 second after washout
T1 sequence (Q9WVC8 1-757): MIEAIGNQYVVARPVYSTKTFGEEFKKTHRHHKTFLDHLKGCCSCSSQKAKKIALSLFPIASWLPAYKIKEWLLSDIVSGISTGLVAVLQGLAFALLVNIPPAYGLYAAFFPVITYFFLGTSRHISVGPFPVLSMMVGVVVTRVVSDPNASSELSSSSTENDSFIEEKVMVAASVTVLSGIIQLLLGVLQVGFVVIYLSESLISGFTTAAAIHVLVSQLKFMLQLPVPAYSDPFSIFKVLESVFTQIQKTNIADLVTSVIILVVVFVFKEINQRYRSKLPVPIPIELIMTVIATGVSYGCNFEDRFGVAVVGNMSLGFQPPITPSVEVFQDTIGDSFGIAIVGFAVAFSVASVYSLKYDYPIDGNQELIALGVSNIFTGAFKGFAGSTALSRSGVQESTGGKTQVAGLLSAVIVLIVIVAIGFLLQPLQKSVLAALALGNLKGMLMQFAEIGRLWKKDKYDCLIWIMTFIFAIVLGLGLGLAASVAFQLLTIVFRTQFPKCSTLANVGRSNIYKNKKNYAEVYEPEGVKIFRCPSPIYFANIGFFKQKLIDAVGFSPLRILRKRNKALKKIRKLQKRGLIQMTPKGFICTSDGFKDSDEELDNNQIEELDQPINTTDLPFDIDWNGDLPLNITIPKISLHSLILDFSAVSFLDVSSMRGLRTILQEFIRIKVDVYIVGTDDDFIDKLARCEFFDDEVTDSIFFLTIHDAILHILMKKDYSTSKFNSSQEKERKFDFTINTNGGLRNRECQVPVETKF
Method: Inhibition was then measured without washout and at 20-30 second after washout.

SLC26A3 [1] = molecular target: T2, SLC26A3 (Mus musculus, UniProt Q9WVC8); test: Transepithelial oxalate transport in FRT monolayers expressing SLC26A3; type: cell-based; conditions: pretreatment 15 min, even at 0.1 μM; 500 μM oxalate gradient
T2 sequence (Q9WVC8 1-757): T1 sequence (Q9WVC8 1-757)
Method: In order to determine the effects of DRAinh-A270 on oxalate transport at physiologically relevant concentrations, transepithelial oxalate transport was measured in Fischer rat thyroid (FRT) monolayers expressing SLC26A3 (FRT-A3 cells) permeable filters and exposed to a 500 μM oxalate concentration gradient.
Oxalate transport rate plotted for studies done in FRT cells expressing SLC26A3 (FRT-A3) pretreated with indicated concentrations of DRAinh-A270 (or DMSO control) for 15 min prior to application of the oxalate gradient. FRT cells not expressing SLC26A3 (FRT-null) are shown as controls. Mean±S.E.M., n=6-12 wells per condition. One-way analysis of variance with post hoc Newman-Keuls multiple comparisons test, **p<0.01, ns: not significant.

[2] = system: mouse distal colonic loops; test: Oxalate absorption in closed distal colonic loops; type: in vivo; conditions: luminal 10 μM, 500 μM oxalate, 60 min
Method: To investigate DRAinh-A270 inhibition of intestinal oxalate transport, experiments were conducted using closed distal colonic loops in which SLC26A3 is the major apical membrane anion transporter. Colonic loops were injected with the solution containing 500 μM sodium oxalate and loop fluid was removed at 60 min to quantify remaining oxalate concentration. To avoid confounding effects of fluid absorption, Cl^−-free solution with amiloride (to block ENaC) was used.

SLC26A3 [3] = molecular target: T2, SLC26A3; test: SLC26A3 inhibition, concentration-dependence (high throughput screening and structure-activity studies); type: cell-based

SMILES: CC(C)CN1C(=O)c2ccc(C(=O)Nc3ccccc3C(=O)O)cc2C1=O [DRAinh-E0078]
pIC50 (SLC26A3 [3]; Class E, Table 1): 6.16

SMILES: Cc1ccc(N2C(=O)c3ccc(C(=O)Nc4ccccc4C(=O)O)cc3C2=O)cc1C [DRAinh-E2333]
pIC50 (SLC26A3 [3]; Class E, Table 1): 6.51

SMILES: Cc1cccc(NS(=O)(=O)c2nnc(NC(=O)c3cccc(C)c3)s2)c1 [DRAinh-F0165]
pIC50 (SLC26A3 [3]; Class F, Table 2): 6.33

SMILES: COc1cccc(C(=O)Nc2nnc(S(=O)(=O)Nc3cccc(C)c3)s2)c1 [DRAinh-F0170]
pIC50 (SLC26A3 [3]; Class F, Table 2): 6.51

Second part, led by results:

reversal of inhibition after washout (DRA): no reversal
increased oxalate transport in FRT-A3 cells (SLC26A3 [1]): largely blocked
SMILES: Cc1c(CC(=O)O)c(=O)oc2c(C)c(OCc3cccc(I)c3)ccc12 [DRAinh-A270]
reduction of oxalate absorption compared to vehicle control [2]: ~70%

pIC50 (SLC26A3 [3]; Class H, Table 4): 6.72
SMILES: Cc1ccc(COc2ccc3oc(-c4ccccc4)c(C(=O)O)c3c2)cc1 [DRAinh-H0163]

pIC50 (SLC26A3 [3]; Class H, Table 4): 5.64
SMILES: O=C(O)c1c(-c2ccccc2)oc2ccc(OCc3ccc(Cl)c(Cl)c3)cc12 [DRAinh-H0493]

pIC50 (SLC26A3 [3]; Class H, Table 4): 6.47
SMILES: Cc1ccccc1COc1ccc2oc(-c3ccccc3)c(C(=O)O)c2c1 [DRAinh-H0696]
